The assay deals with T1, human capsaicin receptor (Homo sapiens, UniProt Q8NER1).
T1 construct: transfected with the pBK-CMV expression construct encoding the full length human capsaicin receptor; expressed in transfected cells
The assay can be described thus: Calcium mobilization assay (antagonist and agonist activity). The class given is cell-based. The settings on record: capsaicin as positive control in agonist assay; read-out: approximate EC90 concentration. Here is the method:
This Example illustrates representative calcium mobilization assays for use in evaluating test compounds for agonist and antagonist activity.
The culture medium is emptied from the 96 well plates and FLUO-3 AM calcium sensitive dye (Molecular Probes, Eugene, Oreg.) is added to each well (dye solution: 1 mg FLUO-3 AM, 440 μL DMSO and 440 μl 20% pluronic acid in DMSO, diluted 1:250 in Krebs-Ringer HEPES (KRH) buffer (25 mM HEPES, 5 mM KCl, 0.96 mM NaH2PO4, 1 mM MgSO4, 2 mM CaCl2, 5 mM glucose, 1 mM probenecid, pH 7.4), 50 μl diluted solution per well). Plates are covered with aluminum foil and incubated at 37° C. for 1-2 hours in an environment containing 5% CO2. […]
To measure the ability of a test compound to agonize or antagonize a calcium mobilization response in cells expressing capsaicin receptors to capsaicin or other vanilloid agonist, the EC50 of the agonist capsaicin is first determined. […] Capsaicin-induced calcium mobilization is monitored using either FLUOROSKAN ASCENT (Labsystems; Franklin, Mass.) or FLIPR (fluorometric imaging plate reader system; Molecular Devices, Sunnyvale, Calif.) instruments. […]
In this equation, y is the maximum fluorescence signal, x is the concentration of the agonist or antagonist (in this case, capsaicin), a is the Emax, b corresponds to the EC50 value and c is the Hill coefficient. […]
A general note: A change in cytosolic calcium serves as a functional read-out for many receptors and channels.

Each structure is given as a SMILES string.

T1 sequence (Q8NER1 whole entry): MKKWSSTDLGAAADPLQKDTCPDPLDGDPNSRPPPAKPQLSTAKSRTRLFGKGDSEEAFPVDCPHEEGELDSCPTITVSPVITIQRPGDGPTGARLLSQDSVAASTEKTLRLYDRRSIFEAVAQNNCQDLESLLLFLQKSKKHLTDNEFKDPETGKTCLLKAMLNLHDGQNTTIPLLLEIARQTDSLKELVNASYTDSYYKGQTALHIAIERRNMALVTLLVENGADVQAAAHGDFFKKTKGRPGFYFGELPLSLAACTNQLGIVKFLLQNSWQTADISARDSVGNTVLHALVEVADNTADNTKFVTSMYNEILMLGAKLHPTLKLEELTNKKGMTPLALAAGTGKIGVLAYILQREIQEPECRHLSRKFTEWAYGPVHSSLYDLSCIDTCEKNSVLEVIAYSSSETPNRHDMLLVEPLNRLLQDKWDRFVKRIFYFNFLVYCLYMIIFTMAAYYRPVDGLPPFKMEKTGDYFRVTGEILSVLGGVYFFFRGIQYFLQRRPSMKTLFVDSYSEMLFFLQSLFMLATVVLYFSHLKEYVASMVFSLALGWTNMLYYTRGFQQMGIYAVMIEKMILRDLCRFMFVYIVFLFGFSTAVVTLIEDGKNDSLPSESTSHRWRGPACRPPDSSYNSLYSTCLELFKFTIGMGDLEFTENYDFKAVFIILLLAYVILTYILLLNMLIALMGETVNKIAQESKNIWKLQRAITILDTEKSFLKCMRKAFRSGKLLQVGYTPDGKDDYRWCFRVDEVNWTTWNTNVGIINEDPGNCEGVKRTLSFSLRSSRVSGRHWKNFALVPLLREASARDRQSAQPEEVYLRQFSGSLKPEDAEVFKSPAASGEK

Consider `COc1cc(CNC(=O)CCCC/C=C/C(C)C)ccc1O` [capsaicin], for which the EC90 is approximately 0.1 µM.
